These results are taken from article PMC7391080 (2020).

Several values for one entry are separate records, joined by “and”; a condition that tells them apart may be missing. Equal values may be shown once.

The subject of the data set is Sap9. Put plainly: 6 ng/μL Sap9 in 2 mM sodium phosphate buffer. Particulars: 37 °C, up to 3 h.

In the case of DSHAKRHHGYKRKFHEKHHSHRGY, the fragment found was 6–24, major and 7–24, major and 13–24, major and 14–24, major.
